# Test: recombinant UMI read abundance after kanamycin selection (control-corrected) (log10(CPM+1)); higher = more efficient recombination; extreme values may be limits of the assay; sequences stand for … in AGTGCAGAGAAAATCGGCCAGTTTTCTCTGCCTGCAGTCCGCATGCCGTGGGACCCCTTGGGTTCTAACCTGTTGCCTAGATTTATGCAGCGGACTGCCTTTCTCCCAAAGTGATAAACCGG…AGGTTGGTTTCACT; site = the 11-nt donor
# Method in brief: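 For the IS621 bridge recombinase, a pooled Escherichia coli screen tested donor and donor-binding-loop pairs. Cells received the pair library together with a target plasmid encoding a fixed target and T7-inducible recombinase, then went onto IPTG (0.07 mM) plus kanamycin or unselected plates in duplicate. After PCR across the donor–target junction and sequencing, recombinant UMI counts were normalized to CPM, averaged, and scaled by control-derived factors. Each value is given as log10(CPM+1).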
row,Sequence,recombinant UMI read abundance (log10)
1,GTCAGAACATGGACCGGTTTTCCCGGTAATCCGTATTTGGC (site GTGAGAACTGC),0
2,GTCAGAACATGGACCGGTTTTCCCGGTAATCCGTATTTGGC (site GTTAGAACTGC),0
3,GTCAGCCCATGGACCGGTTTTCCCGGTAATCCGTATTTGAC (site GTCAGCCCTGT),1.33
4,GTCAGCGCATGGACCGGTTTTCCCGGTAATCCGTATTTGGC (site GTCAGCGCTGC),2.6
5,GTCATAGCATGGACCGGTTTTCCCGGTAATCCGTATTTGTT (site GTCATAGCTAA),2.1
6,GTCATCGCATGGACCGGTTTTCCCGGTAATCCGTATTTGCC (site GTCATCGCTGG),2.35
7,GTCCCCGCATGGACCGGTTTTCCCGGTAATCCGTATTTGTA (site GTCCCCGCTTA),1.13
8,GTCCCTACATGGACCGGTTTTCCCGGTAATCCGTATTTGAG (site ATCCCTACTCT),0.0134
9,GTCCCTACATGGACCGGTTTTCCCGGTAATCCGTATTTGAG (site CTCCCTACTCT),0.0129
10,GTCCCTACATGGACCGGTTTTCCCGGTAATCCGTATTTGAG (site GTCCCTACTCT),0.168
11,GTCCCTACATGGACCGGTTTTCCCGGTAATCCGTATTTGAG (site TTCCCTACTCT),0.00698
12,GTCGCCACATGGACCGGTTTTCCCGGTAATCCGTATTTGGA (site GTCGCCACTTC),0.751
13,GTCGGCACATGGACCGGTTTTCCCGGTAATCCGTATTTGAC (site GTCGGCACTGT),2.04
14,GTCGGTACATGGACCGGTTTTCCCGGTAATCCGTATTTGAC (site GTAGGTACTGT),0.298
15,GTCGGTACATGGACCGGTTTTCCCGGTAATCCGTATTTGAC (site GTCGGTACTGT),1.32
16,GTCGGTACATGGACCGGTTTTCCCGGTAATCCGTATTTGAC (site GTGGGTACTGT),0
17,GTCGGTACATGGACCGGTTTTCCCGGTAATCCGTATTTGAC (site GTTGGTACTGT),0
18,GTCGTCGCATGGACCGGTTTTCCCGGTAATCCGTATTTGCG (site GTAGTCGCTCG),0.0332
19,GTCGTCGCATGGACCGGTTTTCCCGGTAATCCGTATTTGCG (site GTCGTCGCTCG),0.512
20,GTCGTCGCATGGACCGGTTTTCCCGGTAATCCGTATTTGCG (site GTGGTCGCTCG),0.00908
21,GTCGTCGCATGGACCGGTTTTCCCGGTAATCCGTATTTGCG (site GTTGTCGCTCG),0.0186
22,GTCGTTACATGGACCGGTTTTCCCGGTAATCCGTATTTGGC (site GTCGTTACTGC),1.78
23,GTCTAAACATGGACCGGTTTTCCCGGTAATCCGTATTTGTG (site GTCTAAACTCA),1.09
24,GTCTATACATGGACCGGTTTTCCCGGTAATCCGTATTTGGA (site GTCTATACTTC),1.08
25,GTCTGATCATGGACCGGTTTTCCCGGTAATCCGTATTTGAA (site GTCTGATCTTT),1.66

row,Sequence,recombinant UMI read abundance (log10)
1,GTGAAAACATGGACCGGTTTTCCCGGTAATCCGTATTTGCT (site GAGAAAACTAG),0.918
2,GTGAAAACATGGACCGGTTTTCCCGGTAATCCGTATTTGCT (site GCGAAAACTAG),0
3,GTGAAAACATGGACCGGTTTTCCCGGTAATCCGTATTTGCT (site GGGAAAACTAG),0
4,GTGAAAACATGGACCGGTTTTCCCGGTAATCCGTATTTGCT (site GTGAAAACTAG),1.46
5,GTGAAACCATGGACCGGTTTTCCCGGTAATCCGTATTTGAT (site GTGAAACCTAT),0
6,GTGAGAACATGGACCGGTTTTCCCGGTAATCCGTATTTGCT (site GTGAGAACTAG),2.25
7,GTGAGGGCATGGACCGGTTTTCCCGGTAATCCGTATTTGAA (site GTGAGGGCTTT),1.83
8,GTGATGGCATGGACCGGTTTTCCCGGTAATCCGTATTTGAT (site GTGATGGCTAT),2.31
9,GTGATTCCATGGACCGGTTTTCCCGGTAATCCGTATTTGAC (site GTGATTCCTGT),1.95
10,GTGCAAGCATGGACCGGTTTTCCCGGTAATCCGTATTTGGT (site GTGCAAGCTAC),1.28
11,GTGCAAGCATGGACCGGTTTTCCCGGTAATCCGTATTTGGT (site GTGCACGCTAC),0.00225
12,GTGCAAGCATGGACCGGTTTTCCCGGTAATCCGTATTTGGT (site GTGCAGGCTAC),0.602
13,GTGCAAGCATGGACCGGTTTTCCCGGTAATCCGTATTTGGT (site GTGCATGCTAC),0.222
14,GTGCAGGCATGGACCGGTTTTCCCGGTAATCCGTATTTGTC (site GTGCAGGCTGA),2.44
15,GTGCATCCATGGACCGGTTTTCCCGGTAATCCGTATTTGCC (site GTGCATCCTGG),0.749
16,GTGCATCCATGGACCGGTTTTCCCGGTAATCCGTATTTGGT (site GTGCATACTAC),0.0234
17,GTGCATCCATGGACCGGTTTTCCCGGTAATCCGTATTTGGT (site GTGCATCCTAC),0.56
18,GTGCATCCATGGACCGGTTTTCCCGGTAATCCGTATTTGGT (site GTGCATGCTAC),0
19,GTGCATCCATGGACCGGTTTTCCCGGTAATCCGTATTTGGT (site GTGCATTCTAC),0.438
20,GTGCATGCATGGACCGGTTTTCCCGGTAATCCGTATTTGAT (site GTGCATGCTAA),0.00938
21,GTGCATGCATGGACCGGTTTTCCCGGTAATCCGTATTTGAT (site GTGCATGCTAC),0.265
22,GTGCATGCATGGACCGGTTTTCCCGGTAATCCGTATTTGAT (site GTGCATGCTAG),0.649
23,GTGCATGCATGGACCGGTTTTCCCGGTAATCCGTATTTGAT (site GTGCATGCTAT),2.34
24,GTGCATGCATGGACCGGTTTTCCCGGTAATCCGTATTTGGG (site GTGCATGCTAC),0.00412
25,GTGCATGCATGGACCGGTTTTCCCGGTAATCCGTATTTGGG (site GTGCATGCTCC),0.746

row,Sequence,recombinant UMI read abundance (log10)
1,GTGCATGCATGGACCGGTTTTCCCGGTAATCCGTATTTGGG (site GTGCATGCTGC),0
2,GTGCATGCATGGACCGGTTTTCCCGGTAATCCGTATTTGGG (site GTGCATGCTTC),0.0162
3,GTGCATGCATGGACCGGTTTTCCCGGTAATCCGTATTTGTT (site GTGCATGCTAA),2.04
4,GTGCATGCATGGACCGGTTTTCCCGGTAATCCGTATTTGTT (site GTGCATGCTAC),0.0189
5,GTGCATGCATGGACCGGTTTTCCCGGTAATCCGTATTTGTT (site GTGCATGCTAG),1.48
6,GTGCATGCATGGACCGGTTTTCCCGGTAATCCGTATTTGTT (site GTGCATGCTAT),1.31
7,GTGCATTCATGGACCGGTTTTCCCGGTAATCCGTATTTGGT (site GTGCATACTAC),0.361
8,GTGCATTCATGGACCGGTTTTCCCGGTAATCCGTATTTGGT (site GTGCATCCTAC),0.0125
9,GTGCATTCATGGACCGGTTTTCCCGGTAATCCGTATTTGGT (site GTGCATGCTAC),0
10,GTGCATTCATGGACCGGTTTTCCCGGTAATCCGTATTTGGT (site GTGCATTCTAC),1.99
11,GTGCCTGCATGGACCGGTTTTCCCGGTAATCCGTATTTGGT (site GTGCATGCTAC),0.0028
12,GTGCCTGCATGGACCGGTTTTCCCGGTAATCCGTATTTGGT (site GTGCCTGCTAC),0.328
13,GTGCCTGCATGGACCGGTTTTCCCGGTAATCCGTATTTGGT (site GTGCGTGCTAC),0.00453
14,GTGCCTGCATGGACCGGTTTTCCCGGTAATCCGTATTTGGT (site GTGCTTGCTAC),0.00506
15,GTGCTCACATGGACCGGTTTTCCCGGTAATCCGTATTTGAT (site GAGCTCACTAT),0.557
16,GTGCTCACATGGACCGGTTTTCCCGGTAATCCGTATTTGAT (site GCGCTCACTAT),0.322
17,GTGCTCACATGGACCGGTTTTCCCGGTAATCCGTATTTGAT (site GGGCTCACTAT),0.0156
18,GTGCTCACATGGACCGGTTTTCCCGGTAATCCGTATTTGAT (site GTGCTCACTAT),1.9
19,GTGCTTACATGGACCGGTTTTCCCGGTAATCCGTATTTGGC (site GTGCTTACTGC),1.9
20,GTGGAGCCATGGACCGGTTTTCCCGGTAATCCGTATTTGAT (site GTGGAGCCTAT),0.00342
21,GTGGATACATGGACCGGTTTTCCCGGTAATCCGTATTTGTG (site GTGGATACTCA),1.92
22,GTGGGGGCATGGACCGGTTTTCCCGGTAATCCGTATTTGTG (site GTGGAGGCTCA),1.07
23,GTGGGGGCATGGACCGGTTTTCCCGGTAATCCGTATTTGTG (site GTGGCGGCTCA),0.0124
24,GTGGGGGCATGGACCGGTTTTCCCGGTAATCCGTATTTGTG (site GTGGGGGCTCA),0.984
25,GTGGGGGCATGGACCGGTTTTCCCGGTAATCCGTATTTGTG (site GTGGTGGCTCA),0.0315

# Source: the supplement of paper PMC11208160
